Results: US12252524B2, “GIP/GLP1 co-agonist compounds” (Eli Lilly and Company, priority 2018, dated 2025)
Numbered stars: 1 amine (or outer) side, 2 acyl side, 3 side chain; on linkers, the order of the positions; unused ones are H or OH. Square brackets hold non-standard residues; d marks the D form. Side chains are listed from the residue outwards. Peptide text beside a SMILES is read from it. * marks the point of attachment. C20 diacid = O=C(O)CCCCCCCCCCCCCCCCCCC(=O)*; C18 diacid = O=C(O)CCCCCCCCCCCCCCCCC(=O)*; αMePhe(2-F) = C[C@](N)(Cc1ccccc1F)C(=O)O; γGlu = O=C(O)[C@H](CCC(=O)[*:2])N[*:1]; αMeY = C[C@](N)(Cc1ccc(O)cc1)C(=O)O; αMeF = C[C@](N)(Cc1ccccc1)C(=O)O; 4Pal = N[C@@H](Cc1ccncc1)C(=O)O; αMeL = CC(C)C[C@](C)(N)C(=O)O; Orn = NCCC[C@H](N)C(=O)O; AEEA = NCCOCCOCC(=O)O; Aib = CC(C)(N)C(=O)O

Tests used:
human Gcg receptor = target: T1, human Gcg receptor (Homo sapiens, UniProt P47871); assay: [125I]-Glucagon binding (SPA), human Gcg receptor; details: read-out: hGLcgR Ki, nM (SEM, n)
T1 construct: expressed in transfected cells; crude membranes
Protocol: (§1) Two methods are used for the preparation of crude cell membranes.
(§2) Method 1: Frozen cell pellets are lysed on ice in hypotonic buffer containing 50 mM Tris HCl, pH 7.5, and Roche Complete™ Protease Inhibitors with EDTA. The cell suspension is disrupted using a glass Potter-Elvehjem homogenizer fitted with a Teflon® pestle for 25 strokes. The homogenate is centrifuged at 4° C. at 1100×g for 10 minutes. The supernatant is collected and stored on ice while the pellets are resuspended in homogenization buffer and rehomogenized as described above. The homogenate is centrifuged at 1100×g for 10 minutes. The second supernatant is combined with the first supernatant and centrifuged at 35000×g for 1 hour at 4° C. The resulting membrane pellet is resuspended in homogenization buffer containing protease inhibitors at approximately 1 to 3 mg/mL, quick frozen in liquid nitrogen and stored as aliquots in a−80° C. freezer until use.
(§3) Method 2: Frozen cell pellets are lysed on ice in hypotonic buffer containing 50 mM Tris HCl, pH 7.5, 1 mM MgCl2, Roche Complete™ EDTA-free Protease Inhibitors and 25 units/ml DNAse I (Invitrogen). The cell suspension is disrupted using a glass Potter-Elvehjem homogenizer fitted with a Teflon® pestle for 20 to 25 strokes. The homogenate is centrifuged at 4° C. at 1800×g for 15 minutes. The supernatant is collected and stored on ice while the pellets are resuspended in homogenization buffer (without DNAse I) and rehomogenized as described above. The homogenate is centrifuged at 1800×g for 15 minutes. The second supernatant is combined with the first supernatant and centrifuged an additional time at 1800×g for 15 minutes. The overall supernatant is then centrifuged at 25000×g for 30 minutes at 4° C. The resulting membrane pellet is resuspended in homogenization buffer (without DNAse I) containing protease inhibitors at approximately 1 to 3 mg/mL and stored as aliquots in a−80° C. freezer until use.
The human Gcg receptor binding assays are performed using a Scintillation Proximity Assay (SPA) format with wheat germ agglutinin (WGA) beads (Perkin Elmer). The binding buffer contains 25 mM 4-(2-hydroxyethyl)-1-piperazineethanesulfonic acid (HEPES), pH 7.4, 2.5 mM CaCl2, 1 mM MgCl2, 0.1% (w/v) bacitracin (Research Products), 0.003% (w/v) Polyoxyethylenesorbitan monolaurate (TWEEN©-20), and Roche Complete™ Protease Inhibitors without EDTA. […] Plates are sealed and mixed on a plate shaker (setting 6) for 1 minute and read with a PerkinElmer Trilux MicroBeta© scintillation counter after 12 hours of incubation/settling time at room temperature.
(§4) Data are analyzed using four-parameter (curve maximum, curve minimum, IC50, Hill slope) nonlinear regression routines (Genedata Screener, version 12.0.4, Genedata AG, Basal, Switzerland). […] Values for Ki are reported as the geometric mean, with error expressed as the standard error of the mean (SEM) and n is equal to the number of independent replicates (determined in assays performed on different days). […] The Ki Ratio is a rapid indication of the apparent affinity of a peptide compared to the native control peptide. […] SEM is only calculated when n=2 or greater non-qualified results exist. Means are expressed as GeoMetric means with the standard error of the mean (SEM) and the number of replicates (n) indicated in parenthesis.

human GIP receptor = target: T2, human GIP receptor (Homo sapiens, UniProt P48546); assay: [125I]-GIP binding (SPA), human GIP receptor; details: read-out: hGIPR Ki, nM (SEM, n)
T2 construct: expressed in transfected cells; crude membranes
T2 sequence (P48546 22-466): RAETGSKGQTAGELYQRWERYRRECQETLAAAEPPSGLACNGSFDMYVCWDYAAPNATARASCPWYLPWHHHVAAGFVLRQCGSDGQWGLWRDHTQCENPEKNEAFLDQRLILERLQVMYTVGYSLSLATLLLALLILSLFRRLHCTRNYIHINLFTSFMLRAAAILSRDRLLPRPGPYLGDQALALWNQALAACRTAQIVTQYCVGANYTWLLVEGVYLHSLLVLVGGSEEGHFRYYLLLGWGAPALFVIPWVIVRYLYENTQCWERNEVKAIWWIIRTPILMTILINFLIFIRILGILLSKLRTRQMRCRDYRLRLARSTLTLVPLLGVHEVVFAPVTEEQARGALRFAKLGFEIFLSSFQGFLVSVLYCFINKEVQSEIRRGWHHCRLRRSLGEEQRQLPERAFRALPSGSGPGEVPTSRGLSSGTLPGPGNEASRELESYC
Protocol: as §1, §2, §3
The binding buffer contains 25 mM HEPES, pH 7.4, 2.5 mM CaCl2, 1 mM MgCl2, 0.1% (w/v) bacitracin, 0.003% (w/v) TWEEN©-20, and Roche Complete™ Protease Inhibitors without EDTA. Peptides and GIP are thawed and 3 fold serially diluted in 100% DMSO (10 point concentration response curves). […] Plates are sealed and mixed on a plate shaker (setting 6) for 1 minute and read with a PerkinElmer Trilux MicroBeta© scintillation counter after 2.5 to 12 hours of incubation/settling time at room temperature.
as §4

[1] = target: human GLP-1 receptor (GLP-1R) (Homo sapiens, UniProt P43220); assay: cAMP pharmacological functional assay in presence of casein, hGLP-1R; type: cell-based; details: HEK293 cells expressing hGLP-1R, 0.1% Casein, geometric mean; read-out: hGLP1R cAMP Rel EC50 nM (SEM, n)
[2] = target: T3, gastric inhibitory peptide receptor (GIPR) (Homo sapiens, UniProt P48546); assay: cAMP pharmacological functional assay in presence of casein, hGIPR; type: cell-based; details: HEK293 cells expressing hGIPR, 0.1% Casein, geometric mean; read-out: hGIPR cAMP Rel EC50 nM (SEM, n)
T3 sequence (P48546 22-466): T2 sequence (P48546 22-466)

Chain of human GLP-1 receptor (GLP-1R) (P43220 24-463): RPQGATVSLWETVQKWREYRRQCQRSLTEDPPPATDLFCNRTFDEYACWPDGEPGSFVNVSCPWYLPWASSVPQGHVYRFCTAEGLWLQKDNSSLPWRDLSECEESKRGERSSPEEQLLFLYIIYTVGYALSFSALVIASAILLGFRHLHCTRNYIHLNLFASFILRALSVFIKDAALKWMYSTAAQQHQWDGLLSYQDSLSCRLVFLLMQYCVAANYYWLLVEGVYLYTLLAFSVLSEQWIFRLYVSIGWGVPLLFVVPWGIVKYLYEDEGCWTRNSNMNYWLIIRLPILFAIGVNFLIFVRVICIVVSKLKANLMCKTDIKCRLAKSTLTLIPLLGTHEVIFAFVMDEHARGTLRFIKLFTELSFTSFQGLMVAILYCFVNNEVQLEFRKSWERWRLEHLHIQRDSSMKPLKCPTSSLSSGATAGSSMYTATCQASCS
T1 sequence (P47871 26-477): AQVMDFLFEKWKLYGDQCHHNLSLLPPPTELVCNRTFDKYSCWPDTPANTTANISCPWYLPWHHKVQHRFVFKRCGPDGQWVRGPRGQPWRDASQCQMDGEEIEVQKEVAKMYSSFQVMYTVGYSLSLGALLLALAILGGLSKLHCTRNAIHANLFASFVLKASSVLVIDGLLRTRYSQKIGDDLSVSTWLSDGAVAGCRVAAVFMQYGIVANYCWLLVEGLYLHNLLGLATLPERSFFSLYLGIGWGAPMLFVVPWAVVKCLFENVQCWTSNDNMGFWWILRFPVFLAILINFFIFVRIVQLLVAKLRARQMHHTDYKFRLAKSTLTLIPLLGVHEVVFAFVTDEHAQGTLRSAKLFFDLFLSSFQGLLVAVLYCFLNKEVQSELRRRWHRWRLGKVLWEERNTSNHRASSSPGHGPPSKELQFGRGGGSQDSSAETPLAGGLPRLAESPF

SMILES: CC[C@H](C)[C@H](NC(=O)[C@H](CC(C)C)NC(=O)[C@H](Cc1ccc(O)cc1)NC(=O)[C@H](CCC(=O)O)NC(=O)[C@@H](NC(=O)[C@H](Cc1ccccc1)NC(=O)[C@@H](NC(=O)C(C)(C)NC(=O)[C@H](CCC(N)=O)NC(=O)[C@H](C)NC(=O)[C@H](CCCCNC(=O)COCCOCCNC(=O)COCCOCCNC(=O)CC[C@H](NC(=O)CCCCCCCCCCCCCCCCCCC(=O)O)C(=O)O)NC(=O)[C@H](CCCCN)NC(=O)[C@H](CC(=O)O)NC(=O)[C@H](CC(C)C)NC(=O)[C@](C)(CC(C)C)NC(=O)[C@@H](NC(=O)[C@H](CO)NC(=O)[C@H](Cc1ccc(O)cc1)NC(=O)[C@H](CC(=O)O)NC(=O)[C@H](CO)NC(=O)[C@@H](NC(=O)[C@](C)(Cc1ccccc1)NC(=O)[C@@H](NC(=O)CNC(=O)[C@H](CCC(=O)O)NC(=O)C(C)(C)NC(=O)[C@@H](N)Cc1ccc(O)cc1)[C@@H](C)O)[C@@H](C)O)[C@@H](C)CC)[C@@H](C)O)[C@@H](C)CC)C(=O)N[C@@H](CCC(=O)O)C(=O)NCC(=O)NCC(=O)N1CCC[C@H]1C(=O)N[C@@H](CO)C(=O)N[C@@H](CO)C(=O)NCC(=O)N[C@@H](C)C(=O)N1CCC[C@H]1C(=O)N1CCC[C@H]1C(=O)N1CCC[C@H]1C(=O)N[C@@H](CO)C(N)=O [Example 139] (H-Y[Aib]EGT[αMeF]TSDYSI[αMeL]LDKK([AEEA-AEEA-γGlu-C20 diacid])AQ[Aib]TFIEYLIEGGPSSGAPPPS-NH2)
- Ki (human Gcg receptor): 105 nM
- Ki (human GIP receptor): 0.036 nM
- EC50 [1]: 0.0417 nM
- EC50 [2]: 0.037 nM

SMILES: CC[C@H](C)[C@H](NC(=O)[C@H](CC(C)C)NC(=O)[C@H](Cc1ccc(O)cc1)NC(=O)[C@@H](CCC(=O)O)NC(=O)[C@@H](NC(=O)[C@H](Cc1ccccc1)NC(=O)[C@H](CCC(=O)O)NC(=O)C(C)(C)NC(=O)[C@H](CCC(N)=O)NC(=O)[C@H](C)NC(=O)[C@H](CCCCNC(=O)COCCOCCNC(=O)COCCOCCNC(=O)CC[C@H](NC(=O)CCCCCCCCCCCCCCCCC(=O)O)C(=O)O)NC(=O)[C@H](CCC(=O)O)NC(=O)[C@H](CC(=O)O)NC(=O)[C@H](CC(C)C)NC(=O)[C@](C)(CC(C)C)NC(=O)[C@@H](NC(=O)[C@H](CO)NC(=O)[C@H](Cc1ccncc1)NC(=O)[C@H](CC(=O)O)NC(=O)[C@H](CO)NC(=O)[C@@H](NC(=O)[C@](C)(Cc1ccccc1F)NC(=O)[C@@H](NC(=O)CNC(=O)[C@H](CCC(=O)O)NC(=O)C(C)(C)NC(=O)[C@@H](N)Cc1ccc(O)cc1)[C@@H](C)O)[C@@H](C)O)[C@@H](C)CC)[C@@H](C)CC)C(=O)N[C@@H](CCC(=O)O)C(=O)NCC(=O)NCC(=O)N1CCC[C@H]1C(=O)N[C@@H](CO)C(=O)N[C@@H](CO)C(=O)NCC(=O)N[C@@H](C)C(=O)N1CCC[C@H]1C(=O)N1CCC[C@H]1C(=O)N1CCC[C@H]1C(=O)N[C@@H](CO)C(N)=O [Example 204] (H-Y[Aib]EGT[αMePhe(2-F)]TSD[4Pal]SI[αMeL]LDEK([AEEA-AEEA-γGlu-C18 diacid])AQ[Aib]EFI[dE]YLIEGGPSSGAPPPS-NH2)
- Ki (human Gcg receptor): > 1150 nM
- Ki (human GIP receptor): 0.0704 nM
- EC50 [1]: 0.0654 nM
- EC50 [2]: 0.0424 nM

SMILES: CC[C@H](C)[C@H](NC(=O)[C@H](CC(C)C)NC(=O)[C@](C)(Cc1ccc(O)cc1)NC(=O)[C@@H](CCC(=O)O)NC(=O)[C@@H](NC(=O)[C@H](Cc1ccccc1)NC(=O)[C@H](CCC(=O)O)NC(=O)C(C)(C)NC(=O)[C@H](CCC(N)=O)NC(=O)[C@H](C)NC(=O)[C@H](CCCCN)NC(=O)[C@H](CCCN)NC(=O)[C@H](CC(=O)O)NC(=O)[C@H](CC(C)C)NC(=O)[C@](C)(CC(C)C)NC(=O)[C@@H](NC(=O)[C@H](CO)NC(=O)[C@H](Cc1ccncc1)NC(=O)[C@H](CC(=O)O)NC(=O)[C@H](CO)NC(=O)[C@@H](NC(=O)[C@](C)(Cc1ccccc1F)NC(=O)[C@@H](NC(=O)CNC(=O)[C@H](CCC(=O)O)NC(=O)C(C)(C)NC(=O)[C@@H](N)Cc1ccc(O)cc1)[C@@H](C)O)[C@@H](C)O)[C@@H](C)CC)[C@@H](C)CC)C(=O)N[C@@H](CCC(=O)O)C(=O)NCC(=O)NCC(=O)N1CCC[C@H]1C(=O)N[C@@H](CO)C(=O)N[C@@H](CO)C(=O)NCC(=O)N[C@@H](C)C(=O)N1CCC[C@H]1C(=O)N1CCC[C@H]1C(=O)N1CCC[C@H]1C(=O)N[C@@H](CO)C(=O)N[C@@H](CS)C(N)=O [Example 286] (H-Y[Aib]EGT[αMePhe(2-F)]TSD[4Pal]SI[αMeL]LD[Orn]KAQ[Aib]EFI[dE][αMeY]LIEGGPSSGAPPPSC-NH2)
- EC50 [1]: 0.0602 nM
- EC50 [2]: 0.184 nM

SMILES: CC[C@H](C)[C@H](NC(=O)[C@H](CC(C)C)NC(=O)[C@](C)(Cc1ccc(O)cc1)NC(=O)[C@@H](CCC(=O)O)NC(=O)[C@@H](NC(=O)[C@H](Cc1ccccc1)NC(=O)[C@H](CCC(=O)O)NC(=O)C(C)(C)NC(=O)[C@H](CCC(N)=O)NC(=O)[C@H](C)NC(=O)[C@H](CCC(N)=O)NC(=O)[C@H](CCCN)NC(=O)[C@H](CC(=O)O)NC(=O)[C@H](CC(C)C)NC(=O)[C@](C)(CC(C)C)NC(=O)[C@@H](NC(=O)[C@H](CO)NC(=O)[C@H](Cc1ccncc1)NC(=O)[C@H](CC(=O)O)NC(=O)[C@H](CO)NC(=O)[C@@H](NC(=O)[C@](C)(Cc1ccccc1F)NC(=O)[C@@H](NC(=O)CNC(=O)[C@H](CCC(=O)O)NC(=O)C(C)(C)NC(=O)[C@@H](N)Cc1ccc(O)cc1)[C@@H](C)O)[C@@H](C)O)[C@@H](C)CC)[C@@H](C)CC)C(=O)N[C@@H](CCC(=O)O)C(=O)NCC(=O)NCC(=O)N1CCC[C@H]1C(=O)N[C@@H](CO)C(=O)N[C@@H](CO)C(=O)NCC(=O)N[C@@H](C)C(=O)N1CCC[C@H]1C(=O)N1CCC[C@H]1C(=O)N1CCC[C@H]1C(=O)N[C@@H](CO)C(=O)N[C@@H](CS)C(N)=O [Example 287] (H-Y[Aib]EGT[αMePhe(2-F)]TSD[4Pal]SI[αMeL]LD[Orn]QAQ[Aib]EFI[dE][αMeY]LIEGGPSSGAPPPSC-NH2)
- EC50 [1]: 0.112 nM
- EC50 [2]: 0.15 nM
